The NIST ThermoML archive (doi:10.1016/j.jct.2015.06.005)
Numbers after ± are expanded uncertainties.

Key:
[1] = xn = mol fraction of the nth substance listed; details: 100 kPa, Liquid; for speed of sound: Frequency=3 MHz, Sing-around technique in a fixed-path interferometer; for mass density: Vibrating tube method
[2] = refractive index (Na D-line) (dimensionless); xn = mol fraction of the nth substance listed; details: 100 kPa, Liquid, Standard Abbe refractometry

CCCCCCCCN1CCCC1=O [N-octyl-2-pyrrolidone] + CCCCn1cc[n+](C)c1.F[B-](F)(F)F
Details	mass density, [1] [kg/m3]	refractive index, [2]	speed of sound, [1] [m/s]
298.15 K, x2 = 0	918.45 ± 1	1.46346 ± 0.00086	1450.2 ± 6.1
298.15 K, x2 = 0.1084	945.54 ± 1	1.46095 ± 0.00086	1454.9 ± 6.1
298.15 K, x2 = 0.196	965.52 ± 1	1.45803 ± 0.00087	1457.4 ± 6.1
298.15 K, x2 = 0.3023	991.51 ± 1	1.45399 ± 0.00087	1461.3 ± 6.1
298.15 K, x2 = 0.4087	1020.1 ± 1	1.44986 ± 0.00087	1467.5 ± 6.1
298.15 K, x2 = 0.5064	1045.47 ± 1	1.44556 ± 0.00087	1474 ± 6.1
298.15 K, x2 = 0.6027	1074.31 ± 1	1.44155 ± 0.00087	1485.8 ± 6.1
298.15 K, x2 = 0.6981	1103.56 ± 1	1.43713 ± 0.00087	1499.9 ± 6.1
298.15 K, x2 = 0.7966	1133.07 ± 1	1.43209 ± 0.00087	1517.6 ± 6.1
298.15 K, x2 = 0.8978	1164.87 ± 1.1	1.42695 ± 0.00087	1539.8 ± 6.1
303.15 K, x2 = 0	914.8 ± 1	1.46152 ± 0.00086	1432.6 ± 6.1
303.15 K, x2 = 0.1084	941.91 ± 1	1.45882 ± 0.00086	1438.3 ± 6.1
303.15 K, x2 = 0.196	961.89 ± 1	1.45622 ± 0.00087	1441.3 ± 6.1
303.15 K, x2 = 0.3023	987.89 ± 1	1.45226 ± 0.00087	1445.3 ± 6.1
303.15 K, x2 = 0.4087	1016.54 ± 1	1.4482 ± 0.00087	1452.1 ± 6.1
303.15 K, x2 = 0.5064	1041.86 ± 1	1.44392 ± 0.00087	1459.2 ± 6.1
303.15 K, x2 = 0.6027	1070.71 ± 1	1.43996 ± 0.00087	1471.7 ± 6.1
303.15 K, x2 = 0.6981	1099.98 ± 1	1.43564 ± 0.00087	1486 ± 6.1
303.15 K, x2 = 0.7966	1129.48 ± 1	1.4307 ± 0.00087	1504.5 ± 6.1
303.15 K, x2 = 0.8978	1161.29 ± 1.1	1.42526 ± 0.00087	1527.3 ± 6.1
308.15 K, x2 = 0	911.14 ± 1	1.45955 ± 0.00086	1415.3 ± 6.1
308.15 K, x2 = 0.1084	938.28 ± 1	1.45675 ± 0.00086	1421.6 ± 6.1
308.15 K, x2 = 0.196	958.26 ± 1	1.45433 ± 0.00087	1424.9 ± 6.1
308.15 K, x2 = 0.3023	984.27 ± 1	1.45051 ± 0.00087	1429.4 ± 6.1
308.15 K, x2 = 0.4087	1012.96 ± 1	1.44653 ± 0.00087	1436.8 ± 6.1
308.15 K, x2 = 0.5064	1038.25 ± 1	1.4423 ± 0.00087	1444.4 ± 6.1
308.15 K, x2 = 0.6027	1067.16 ± 1	1.43842 ± 0.00087	1457.4 ± 6.1
308.15 K, x2 = 0.6981	1096.42 ± 1	1.43416 ± 0.00087	1472.3 ± 6.1
308.15 K, x2 = 0.7966	1125.91 ± 1	1.42923 ± 0.00087	1491.4 ± 6.1
308.15 K, x2 = 0.8978	1157.71 ± 1.1	1.42379 ± 0.00087	1514.9 ± 6.1
313.15 K, x2 = 0	907.49 ± 1	1.45761 ± 0.00086	1398 ± 6.1
313.15 K, x2 = 0.1084	934.64 ± 1	1.45482 ± 0.00086	1405 ± 6.1
313.15 K, x2 = 0.196	954.63 ± 1	1.45243 ± 0.00087	1408.7 ± 6.1
313.15 K, x2 = 0.3023	980.66 ± 1	1.44871 ± 0.00087	1413.7 ± 6.1
313.15 K, x2 = 0.4087	1009.39 ± 1	1.44484 ± 0.00087	1421.6 ± 6.1
313.15 K, x2 = 0.5064	1034.65 ± 1	1.44059 ± 0.00087	1429.7 ± 6.1
313.15 K, x2 = 0.6027	1063.63 ± 1	1.43681 ± 0.00087	1443.3 ± 6.1
313.15 K, x2 = 0.6981	1092.9 ± 1	1.43266 ± 0.00087	1458.8 ± 6.1
313.15 K, x2 = 0.7966	1122.36 ± 1	1.42777 ± 0.00087	1478.6 ± 6.1
313.15 K, x2 = 0.8978	1154.16 ± 1.1	1.4223 ± 0.00087	1502.7 ± 6.1
318.15 K, x2 = 0	903.83 ± 1	1.45564 ± 0.00086	1380.9 ± 6.1
318.15 K, x2 = 0.1084	931.01 ± 1	1.45292 ± 0.00086	1388.6 ± 6.1
318.15 K, x2 = 0.196	951.01 ± 1	1.45054 ± 0.00087	1392.7 ± 6.1
318.15 K, x2 = 0.3023	977.05 ± 1	1.44692 ± 0.00087	1398.2 ± 6.1
318.15 K, x2 = 0.4087	1005.86 ± 1	1.44312 ± 0.00087	1406.6 ± 6.1
318.15 K, x2 = 0.5064	1031.07 ± 1	1.43894 ± 0.00087	1415.2 ± 6.1
318.15 K, x2 = 0.6027	1060.13 ± 1	1.43513 ± 0.00087	1429.4 ± 6.1
318.15 K, x2 = 0.6981	1089.38 ± 1	1.43111 ± 0.00087	1445.5 ± 6.1
318.15 K, x2 = 0.7966	1118.83 ± 1	1.4263 ± 0.00087	1465.9 ± 6.1
318.15 K, x2 = 0.8978	1150.62 ± 1.1	1.4208 ± 0.00087	1490.6 ± 6.1
323.15 K, x2 = 0	900.17 ± 1	1.45367 ± 0.00086	1364 ± 6.1
323.15 K, x2 = 0.1084	927.39 ± 1	1.45088 ± 0.00086	1372.3 ± 6.1
323.15 K, x2 = 0.196	947.4 ± 1	1.44862 ± 0.00087	1376.7 ± 6.1
323.15 K, x2 = 0.3023	973.44 ± 1	1.44512 ± 0.00087	1382.7 ± 6.1
323.15 K, x2 = 0.4087	1002.29 ± 1	1.44146 ± 0.00087	1391.8 ± 6.1
323.15 K, x2 = 0.5064	1027.48 ± 1	1.43731 ± 0.00087	1400.8 ± 6.1
323.15 K, x2 = 0.6027	1056.67 ± 1	1.43346 ± 0.00087	1415.6 ± 6.1
323.15 K, x2 = 0.6981	1085.86 ± 1	1.42954 ± 0.00087	1432.2 ± 6.1
323.15 K, x2 = 0.7966	1115.32 ± 1	1.42478 ± 0.00087	1453.3 ± 6.1
323.15 K, x2 = 0.8978	1147.1 ± 1.1	1.41935 ± 0.00087	1478.6 ± 6.1
